Reference: publication PMC5218480 (PLoS ONE, 2017)

System: MV-4-11 cells
Experiment: Gene expression microarray analysis (Affymetrix PrimeView) and GSEA
Format: cell-based, human
Parameters: RFU PODN (11730768_x_at) / Fold change /veh PODN (11730768_x_at) / RFU LINC00158 (11744669_a_at) / Fold change /veh LINC00158 (11744669_a_at) / RFU DUSP10 (11751237_a_at) / Fold change /veh DUSP10 (11751237_a_at) / RFU ID3 (11757404_x_at) / Fold change /veh ID3 (11757404_x_at) / RFU PLEKHG5 (11737974_s_at) / Fold change /veh PLEKHG5 (11737974_s_at) / RFU LRRC4B (11730491_at) / Fold change /veh LRRC4B (11730491_at) / RFU GIMAP4 (11747438_a_at) / Fold change /veh GIMAP4 (11747438_a_at) / RFU KRT8 (11758183_x_at) / Fold change /veh KRT8 (11758183_x_at) / RFU CNN1 (11734310_a_at) / Fold change /veh CNN1 (11734310_a_at) / RFU VPS37D (11726825_at) / Fold change /veh VPS37D (11726825_at) / RFU C10orf10 (11716522_x_at) / Fold change /veh C10orf10 (11716522_x_at) / RFU KIR2DL2 /// KIR2DL4 /// KIR2DL5A /// KIR2DL5B /// KIR2DS1 /// KIR2DS2 /// KIR2DS3 /// KIR2DS4 /// KIR3DL3 /// KIR3DL3 /// KIR3DS1 (11738374_at) / Fold change /veh KIR2DL2 /// KIR2DL4 /// KIR2DL5A /// KIR2DL5B /// KIR2DS1 /// KIR2DS2 /// KIR2DS3 /// KIR2DS4 /// KIR3DL3 /// KIR3DL3 /// KIR3DS1 (11738374_at) / RFU C1QL1 (11718748_at) / Fold change /veh C1QL1 (11718748_at) / RFU TMPRSS4 (11747572_a_at) / Fold change /veh TMPRSS4 (11747572_a_at) / RFU HAMP (11756126_x_at) / Fold change /veh HAMP (11756126_x_at) / RFU RNFT2 (11725882_a_at) / Fold change /veh RNFT2 (11725882_a_at) / RFU NR4A2 (11747474_a_at) / Fold change /veh NR4A2 (11747474_a_at) / RFU ABCC12 (11746883_a_at) / Fold change /veh ABCC12 (11746883_a_at) / RFU TMEM136 (11760407_x_at) / Fold change /veh TMEM136 (11760407_x_at) / RFU CLDN22 /// WWC2 (11732394_at) / Fold change /veh CLDN22 /// WWC2 (11732394_at) / RFU HLA-DPB1 (11760878_x_at) / Fold change /veh HLA-DPB1 (11760878_x_at) / RFU SPINT1 (11716480_a_at) / Fold change /veh SPINT1 (11716480_a_at) / RFU GAP43 (11754022_s_at) / Fold change /veh GAP43 (11754022_s_at) / RFU A4GNT (11735810_at) / Fold change /veh A4GNT (11735810_at) / RFU PRB3 (11715151_x_at) / Fold change /veh PRB3 (11715151_x_at) / RFU TUBB4B (11761932_at) / Fold change /veh TUBB4B (11761932_at) / RFU CAPN14 (11732068_a_at) / Fold change /veh CAPN14 (11732068_a_at) / RFU TMCC2 (11721928_a_at) / Fold change /veh TMCC2 (11721928_a_at) / RFU IRGQ (11745062_a_at) / Fold change /veh IRGQ (11745062_a_at) / RFU FAM174B (11720279_a_at) / Fold change /veh FAM174B (11720279_a_at) / RFU TMPRSS4 (11748680_a_at) / Fold change /veh TMPRSS4 (11748680_a_at) / RFU FAM212B (11763350_a_at) / Fold change /veh FAM212B (11763350_a_at) / RFU PLEKHG5 (11743358_a_at) / Fold change /veh PLEKHG5 (11743358_a_at) / RFU ZSCAN30 (11745921_a_at) / Fold change /veh ZSCAN30 (11745921_a_at) / RFU CMKLR1 (11741424_a_at) / Fold change /veh CMKLR1 (11741424_a_at) / RFU LOC101060620 /// MAPK8IP1 (11723275_at) / Fold change /veh LOC101060620 /// MAPK8IP1 (11723275_at) / RFU SPTSSB (11747773_x_at) / Fold change /veh SPTSSB (11747773_x_at) / RFU PRSS12 (11739890_at) / Fold change /veh PRSS12 (11739890_at) / RFU BIN1 (11741810_x_at) / Fold change /veh BIN1 (11741810_x_at) / RFU WNT11 (11732464_a_at) / Fold change /veh WNT11 (11732464_a_at) / RFU C10orf10 (11716521_a_at) / Fold change /veh C10orf10 (11716521_a_at) / RFU C5orf56 (11738089_at) / Fold change /veh C5orf56 (11738089_at) / RFU CYB561 (11721691_x_at) / Fold change /veh CYB561 (11721691_x_at) / RFU ANKRD19P (11752326_a_at) / Fold change /veh ANKRD19P (11752326_a_at) / RFU OR2T12 /// OR2T33 /// OR2T8 (11738714_s_at) / Fold change /veh OR2T12 /// OR2T33 /// OR2T8 (11738714_s_at) / RFU VCAN (11748164_a_at) / Fold change /veh VCAN (11748164_a_at) / RFU JSRP1 (11732532_at) / Fold change /veh JSRP1 (11732532_at) / RFU KRTAP10-11 (11738290_x_at) / Fold change /veh KRTAP10-11 (11738290_x_at) / RFU MYO3A (11730013_a_at) / Fold change /veh MYO3A (11730013_a_at) / RFU EBF3 (11725865_a_at) / Fold change /veh EBF3 (11725865_a_at) / RFU CAMK2N1 (11719241_x_at) / Fold change /veh CAMK2N1 (11719241_x_at) / RFU C5orf56 (11738088_a_at) / Fold change /veh C5orf56 (11738088_a_at) / RFU OLFML3 (11715873_a_at) / Fold change /veh OLFML3 (11715873_a_at) / RFU LOC100653217 /// NTM (11731650_a_at) / Fold change /veh LOC100653217 /// NTM (11731650_a_at) / RFU MAPK11 (11762145_a_at) / Fold change /veh MAPK11 (11762145_a_at) / RFU FIZ1 (11724087_x_at) / Fold change /veh FIZ1 (11724087_x_at) / RFU OASL (11726364_x_at) / Fold change /veh OASL (11726364_x_at) / RFU SOX15 (11748057_x_at) / Fold change /veh SOX15 (11748057_x_at) / RFU CD79A (11719716_a_at) / Fold change /veh CD79A (11719716_a_at) / RFU HIST1H1D (11736915_at) / Fold change /veh HIST1H1D (11736915_at) / RFU CASKIN2 (11723855_a_at) / Fold change /veh CASKIN2 (11723855_a_at) / RFU LOC730098 (11760151_x_at) / Fold change /veh LOC730098 (11760151_x_at) / RFU OR4N2 (11742367_at) / Fold change /veh OR4N2 (11742367_at) / RFU PRRT2 (11749266_a_at) / Fold change /veh PRRT2 (11749266_a_at) / RFU SNX32 (11753110_a_at) / Fold change /veh SNX32 (11753110_a_at) / RFU CDHR5 (11726645_a_at) / Fold change /veh CDHR5 (11726645_a_at) / RFU RCAN1 (11760418_a_at) / Fold change /veh RCAN1 (11760418_a_at) / RFU FAM167A (11723789_a_at) / Fold change /veh FAM167A (11723789_a_at) / RFU FAM26E (11764081_at) / Fold change /veh FAM26E (11764081_at) / RFU ISYNA1 (11749810_s_at) / Fold change /veh ISYNA1 (11749810_s_at) / RFU ACY1 (11761880_at) / Fold change /veh ACY1 (11761880_at) / RFU 11764098_at / Fold change /veh 11764098_at / RFU SAMD14 (11745864_x_at) / Fold change /veh SAMD14 (11745864_x_at) / RFU NPB (11741838_a_at) / Fold change /veh NPB (11741838_a_at) / RFU TMPRSS6 (11731388_a_at) / Fold change /veh TMPRSS6 (11731388_a_at) / RFU KRTAP10-2 (11738614_at) / Fold change /veh KRTAP10-2 (11738614_at) / RFU ARHGAP8 /// PRR5-ARHGAP8 (11727945_x_at) / Fold change /veh ARHGAP8 /// PRR5-ARHGAP8 (11727945_x_at) / RFU KRTAP5-7 /// NADSYN1 (11734609_at) / Fold change /veh KRTAP5-7 /// NADSYN1 (11734609_at) / RFU RASL12 (11751679_a_at) / Fold change /veh RASL12 (11751679_a_at) / RFU CDKN2B (11736163_a_at) / Fold change /veh CDKN2B (11736163_a_at) / RFU PRF1 (11729649_at) / Fold change /veh PRF1 (11729649_at) / RFU, ZNF638 /// ZNF638-IT1 / Fold change vs veh, ZNF638 /// ZNF638-IT1 / RFU, PANK3 / Fold change vs veh, PANK3 / RFU, SH3YL1 / Fold change vs veh, SH3YL1 / RFU, ZEB2 / Fold change vs veh, ZEB2 / RFU, NRIP1 / Fold change vs veh, NRIP1 / RFU, PTTG1IP / Fold change vs veh, PTTG1IP / RFU, CAPN2 / Fold change vs veh, CAPN2 / RFU, MED14 / Fold change vs veh, MED14 / RFU, SNORA58 / Fold change vs veh, SNORA58 / RFU, C1orf63 / Fold change vs veh, C1orf63 / RFU, LRRFIP1 / Fold change vs veh, LRRFIP1 / RFU, NDUFAF7 / Fold change vs veh, NDUFAF7 / RFU, SLC12A2 / Fold change vs veh, SLC12A2 / RFU, IBTK / Fold change vs veh, IBTK / RFU, ESF1 / Fold change vs veh, ESF1 / Fold change vs veh, TMEM50B / RFU, TAOK1 / Fold change vs veh, TAOK1 / RFU, ACBD3 / Fold change vs veh, ACBD3 / RFU, TMA16 / Fold change vs veh, TMA16 / RFU, RWDD3 / Fold change vs veh, RWDD3 / RFU, BCAT1 / Fold change vs veh, BCAT1 / RFU, EDEM3 / Fold change vs veh, EDEM3 / RFU, TMEM33 / Fold change vs veh, TMEM33 / RFU, WDR75 / Fold change vs veh, WDR75 / RFU, AHCTF1 / Fold change vs veh, AHCTF1 / RFU, TFRC / Fold change vs veh, TFRC / RFU, ZDHHC17 / Fold change vs veh, ZDHHC17 / RFU, NOM1 / Fold change vs veh, NOM1 / RFU, ARL8B / Fold change vs veh, ARL8B / RFU, ZBTB11 / Fold change vs veh, ZBTB11 / RFU, TAMM41 / Fold change vs veh, TAMM41 / RFU, KIAA1704 /// LOC100996395 / Fold change vs veh, KIAA1704 /// LOC100996395 / RFU, ING1 / Fold change vs veh, ING1 / RFU, TRMT61B / Fold change vs veh, TRMT61B / RFU, FUBP3 / Fold change vs veh, FUBP3 / RFU, TP53 / Fold change vs veh, TP53 / RFU, TNKS2 / Fold change vs veh, TNKS2 / RFU, ZFP14 / Fold change vs veh, ZFP14 / RFU, ACTR2 / Fold change vs veh, ACTR2 / RFU, PPP3R1 / Fold change vs veh, PPP3R1 / RFU, PIK3R1 / Fold change vs veh, PIK3R1 / RFU, HNRNPA1 / Fold change vs veh, HNRNPA1 / RFU, RNF170 / Fold change vs veh, RNF170 / RFU, ZNF28 / Fold change vs veh, ZNF28 / RFU, RNGTT / Fold change vs veh, RNGTT / RFU, OGT / Fold change vs veh, OGT / RFU, BRD1 / Fold change vs veh, BRD1 / RFU, MARS / Fold change vs veh, MARS / RFU, ZNF655 / Fold change vs veh, ZNF655 / RFU, FAHD1 / Fold change vs veh, FAHD1 / RFU, BDP1 / Fold change vs veh, BDP1 / RFU, LRRCC1 / Fold change vs veh, LRRCC1 / RFU, ARID1A / Fold change vs veh, ARID1A / RFU, ZNF146 / Fold change vs veh, ZNF146 / RFU, ZNF330 / Fold change vs veh, ZNF330 / RFU, GPN3 / Fold change vs veh, GPN3 / RFU, C9orf123 / Fold change vs veh, C9orf123 / RFU, N4BP2L2 / Fold change vs veh, N4BP2L2 / RFU, ARFIP1 / Fold change vs veh, ARFIP1 / RFU, FAM179B / Fold change vs veh, FAM179B / RFU, BCL10 / Fold change vs veh, BCL10 / RFU, UHRF1BP1L / Fold change vs veh, UHRF1BP1L / RFU, BET1 / Fold change vs veh, BET1 / RFU, CNOT2 / Fold change vs veh, CNOT2 / RFU, ZNF268 / Fold change vs veh, ZNF268 / Fold change vs veh, ZNF507 / RFU, DGCR2 / Fold change vs veh, DGCR2 / RFU, WDSUB1 / Fold change vs veh, WDSUB1 / Fold change vs veh, HSP90B1 /// MIR3652 / RFU, ADSS / Fold change vs veh, ADSS / RFU, GK / Fold change vs veh, GK / RFU, ZNF148 / Fold change vs veh, ZNF148 / RFU, TAF9 / Fold change vs veh, TAF9 / RFU, SLC1A5 / Fold change vs veh, SLC1A5 / RFU, SLMO2 / Fold change vs veh, SLMO2 / RFU, ABCC4 / Fold change vs veh, ABCC4 / RFU, LOC101060439 /// RAP1B / Fold change vs veh, LOC101060439 /// RAP1B / RFU, RFX7 / Fold change vs veh, RFX7 / RFU, GTPBP10 / Fold change vs veh, GTPBP10 / RFU, CNEP1R1 / Fold change vs veh, CNEP1R1 / RFU, BIVM-ERCC5 /// ERCC5 / Fold change vs veh, BIVM-ERCC5 /// ERCC5 / RFU, ILF3 / Fold change vs veh, ILF3 / RFU 11762660_at / Fold change /veh 11762660_at / RFU VCAN (11757783_s_at) / Fold change /veh VCAN (11757783_s_at) / RFU DDX43 (11728927_at) / Fold change /veh DDX43 (11728927_at) / RFU KRT8 (11758188_x_at) / Fold change /veh KRT8 (11758188_x_at) / RFU NKD1 (11759106_at) / Fold change /veh NKD1 (11759106_at) / RFU SRD5A1 (11742802_a_at) / Fold change /veh SRD5A1 (11742802_a_at) / RFU TPSAB1 /// TPSB2 (11721975_s_at) / Fold change /veh TPSAB1 /// TPSB2 (11721975_s_at) / RFU GSTM3 (11746129_a_at) / Fold change /veh GSTM3 (11746129_a_at) / RFU IL23R (11737362_x_at) / Fold change /veh IL23R (11737362_x_at) / RFU TMEM51 (11727254_a_at) / Fold change /veh TMEM51 (11727254_a_at) / RFU PIWIL2 (11732686_x_at) / Fold change /veh PIWIL2 (11732686_x_at) / RFU ORM1 (11744905_x_at) / Fold change /veh ORM1 (11744905_x_at) / RFU CCDC152 (11743942_at) / Fold change /veh CCDC152 (11743942_at) / RFU ECM1 (11717891_a_at) / Fold change /veh ECM1 (11717891_a_at) / RFU IL23R (11748794_a_at) / Fold change /veh IL23R (11748794_a_at) / RFU TNFAIP8L3 (11732012_x_at) / Fold change /veh TNFAIP8L3 (11732012_x_at) / RFU MBOAT4 (11741988_at) / Fold change /veh MBOAT4 (11741988_at) / RFU 11764193_at / Fold change /veh 11764193_at / RFU TMEM53 (11763286_at) / Fold change /veh TMEM53 (11763286_at) / RFU MAGEB2 (11727129_at) / Fold change /veh MAGEB2 (11727129_at) / RFU TMEM200A (11744735_a_at) / Fold change /veh TMEM200A (11744735_a_at) / RFU CCDC152 (11751479_a_at) / Fold change /veh CCDC152 (11751479_a_at) / RFU FAM211A (11726209_a_at) / Fold change /veh FAM211A (11726209_a_at) / RFU RGS16 (11746705_a_at) / Fold change /veh RGS16 (11746705_a_at) / RFU VCAN (11755009_s_at) / Fold change /veh VCAN (11755009_s_at) / RFU RHOB (11743442_s_at) / Fold change /veh RHOB (11743442_s_at) / RFU RGS16 (11720943_a_at) / Fold change /veh RGS16 (11720943_a_at) / RFU RGS16 (11720944_at) / Fold change /veh RGS16 (11720944_at) / RFU, VPS4B / Fold change vs veh, VPS4B / RFU, CREB1 / Fold change vs veh, CREB1 / RFU, DNAJC13 / Fold change vs veh, DNAJC13 / RFU, GNAQ / Fold change vs veh, GNAQ / RFU, CDK5R1 / Fold change vs veh, CDK5R1 / RFU, ZRANB3 / Fold change vs veh, ZRANB3 / RFU, CUL4A / Fold change vs veh, CUL4A / RFU, CCNY / Fold change vs veh, CCNY / RFU, UFL1 / Fold change vs veh, UFL1 / RFU, COG3 / Fold change vs veh, COG3 / RFU, DIAPH2 / Fold change vs veh, DIAPH2 / RFU, SKA2 / Fold change vs veh, SKA2 / RFU, AFF3 / Fold change vs veh, AFF3 / RFU, LMF1 / Fold change vs veh, LMF1 / RFU, IPO11 / Fold change vs veh, IPO11 / RFU, DFFB / Fold change vs veh, DFFB / RFU, FOXP1 / Fold change vs veh, FOXP1 / RFU, CARD8 / Fold change vs veh, CARD8 / RFU, STRN3 / Fold change vs veh, STRN3 / RFU, ADK / Fold change vs veh, ADK / RFU, RASSF2 / Fold change vs veh, RASSF2 / RFU, WIPF1 / Fold change vs veh, WIPF1 / RFU, LARP1B / Fold change vs veh, LARP1B / RFU, RASA1 / Fold change vs veh, RASA1 / RFU, RB1 / Fold change vs veh, RB1 / RFU, PPFIA1 / Fold change vs veh, PPFIA1 / RFU, MAT2A / Fold change vs veh, MAT2A / RFU, CCT5 / Fold change vs veh, CCT5 / RFU, WDR92 / Fold change vs veh, WDR92 / RFU, CUX1 / Fold change vs veh, CUX1 / RFU, TTC7A / Fold change vs veh, TTC7A / RFU, TMEM135 / Fold change vs veh, TMEM135 / RFU, DEPTOR / Fold change vs veh, DEPTOR / RFU, CPM / Fold change vs veh, CPM / RFU, DNAJB6 / Fold change vs veh, DNAJB6 / RFU, CACNA2D3 / Fold change vs veh, CACNA2D3 / RFU, DTX4 / Fold change vs veh, DTX4 / RFU, TFCP2 / Fold change vs veh, TFCP2 / RFU, GMCL1 /// GMCL1P1 / Fold change vs veh, GMCL1 /// GMCL1P1 / RFU, AEBP2 / Fold change vs veh, AEBP2 / RFU, SNHG1 /// SNORD22 /// SNORD25 /// SNORD26 /// SNORD27 /// SNORD28 /// SNORD29 /// SNORD31 / Fold change vs veh, SNHG1 /// SNORD22 /// SNORD25 /// SNORD26 /// SNORD27 /// SNORD28 /// SNORD29 /// SNORD31 / Fold change (Aza/veh), C12orf56 (ProbeSet 11735607_a_at) / Fold change (ACY-1035/veh), C12orf56 (ProbeSet 11735607_a_at) / Fold change (Aza/veh), FGFR1OP (ProbeSet 11751329_s_at) / Fold change (ACY-1035/veh), FGFR1OP (ProbeSet 11751329_s_at) / Fold change (Aza/veh), VPS36 (ProbeSet 11739960_a_at) / Fold change (ACY-1035/veh), VPS36 (ProbeSet 11739960_a_at) / RFU SYPL1 (11715823_x_at) / Fold change /veh SYPL1 (11715823_x_at) / RFU IGFBP7 (11715501_s_at) / Fold change /veh IGFBP7 (11715501_s_at) / RFU REEP3 (11722064_at) / Fold change /veh REEP3 (11722064_at) / RFU IGLL1 (11728026_x_at) / Fold change /veh IGLL1 (11728026_x_at): dose or concentration left out as unconfirmed
Details: ProbeSet 11758919_x_at; LIST D

Nc1ncn([C@@H]2O[C@H](CO)[C@@H](O)[C@H]2O)c(=O)n1 [azacitidine]
RFU, TFCP2: 66.08 RFU
